Patent US20210198269A1, “INHIBITORS OF GLUCOSE TRANSPORTERS (GLUTs)” (LEAD DISCOVERY CENTER GMBH, priority 2018, published 2021)

Legend:
Type in all cases: cell-based
HCT116 cells = assay: 2-Deoxy-Glucose (2-DG) uptake assay in HCT116 cells; conditions: Homo sapiens, HCT-116, 0.5 h, 1 mM 2-DG, 30 min, read-out: IC50 determined for the inhibition of 2-DG uptake in HCT116 cells
Experimental: The 2-DG uptake assay was carried out as described by Yamamoto N. et al. with slight modifications ([…]). Briefly, 40,000 HCT116 or CHO cells were seeded in black, clear bottom 96-well plates and allowed to attach overnight. Cells were incubated with compounds or DMSO and 1 mM 2-DG in glucose-free KRB buffer (20 mM HEPES, 5 mM KH2PO4, 1 mM MgSO4, 1 mM CaCl2), 136 mM NaCl, 0.1% BSA, pH 7.4) for 30 min. In the case of GLUT-4 transfected cells, Insulin (100 μg/mL) was added to the buffer. Cells were then washed and lysed in 0.06 M HCl and 1% CHAPS for 15 min at 65° C. while shaking. The amount of 2-DG in the lysate was determined by means of enzyme-coupled assay. For this 6.4 U/mL glucose-6-phosphate dehydrogenase, 0.2 U/mL diaphorase, 0.1 mM NADP^+ and 0.025 mg/mL resazurin were added to the lysates. Resorufin fluorescence was determined as a measure of 2-DG uptake at ex/em 535/590 nm with a Tecan Infinite M200 plate reader (Tecan). Blank values were subtracted from all readings and values were normalized to the DMSO control.

GLUT4 = target: T1, GLUT4 (Homo sapiens, UniProt P14672); assay: GLUT4 transporter activity assay (2-DG uptake) in CHO-hGLUT4 cells; conditions: CHO-hGLUT4 cell line; read-out: GLUT4 inhibitory activity (IC50)
T1 sequence (P14672 1-509): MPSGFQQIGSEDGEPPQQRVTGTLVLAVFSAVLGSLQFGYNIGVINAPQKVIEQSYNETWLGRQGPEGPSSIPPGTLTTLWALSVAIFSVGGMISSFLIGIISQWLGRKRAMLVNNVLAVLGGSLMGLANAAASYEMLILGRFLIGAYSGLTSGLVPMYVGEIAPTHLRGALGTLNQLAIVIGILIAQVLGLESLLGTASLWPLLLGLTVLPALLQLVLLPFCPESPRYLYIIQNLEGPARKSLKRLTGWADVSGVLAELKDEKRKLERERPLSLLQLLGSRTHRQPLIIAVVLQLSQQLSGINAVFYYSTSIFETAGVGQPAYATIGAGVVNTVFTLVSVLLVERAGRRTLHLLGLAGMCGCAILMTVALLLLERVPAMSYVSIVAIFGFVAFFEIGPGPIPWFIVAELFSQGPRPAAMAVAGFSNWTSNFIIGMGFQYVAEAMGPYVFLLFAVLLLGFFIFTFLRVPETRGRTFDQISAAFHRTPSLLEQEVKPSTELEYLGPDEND
Experimental: CHOK1-SLC2A4 cells were generated by transfection of CHOK1 cells with pCMV6-Entry-GLUT4 (Origene #SC125240) using Lipofectamin2000 according to the supplier's instructions. Briefly, 1.5E5 cells/well CHOK1 cells were seeded in 6-well cell culture plates. After overnight incubation, DNA-lipid complexes (2 μg plasmid DNA, DNA:lipid ratio 1:10) were prepared in OptiMEM and then added to the cells. After 5 days incubation, 800 μg G418 was added to the culture medium to generate a stable polyclone. For monoclone selection, single cells were re-plated in 96-well plates, expanded and selected by transgene overexpression and functional performance.
(§1) GLUT 1, 2, 3 and 4 Transporter Activity Assays
(§2) Assays were based on the specificity assays reported by Kapoor et al., Proceedings of the National Academy of Sciences 2016, 113 (17) 4711-4716. For GLUT1, GLUT2, GLUT3 and GLUT4 specificity testing DLD1, CHO-hGLUT2, DLD-1-GLUT1−/− and CHO-hGLUT4 cell lines were used.
(§3) Assay protocols for 2-deoxy-Glucose (2-DG) Uptake Assay with DLD1 or DLD1-Glut1(−/−) cells or 7,000 CHOK1-SLC2A4 cells lines:
(§4) 14,000 DLD1 or DLD1-Glut1(−/−) cells or 7,000 CHOK1-SLC2A4 cells were seeded in black, clear bottom 384-well plates in glucose- and phenolred-free RPMI1640 medium supplemented with 1% FCS and 2 mM L-glutamine and allowed to attach overnight. Next day, cells were washed and incubated with compounds or DMSO and 1 mM 2-DG in glucose- and phenolred-free RPMI1640 medium for 30 min. Cells were then washed and lysed in 0.06 M HCl and 1% CHAPS for 15 min at 65° C. The amount of 2-DG in the lysate was determined by means of enzyme-coupled assay. For this 16 U/mL glucose-6-phosphate dehydrogenase, 0.2 U/mL diaphorase, 0.1 mM NADP^+ and 10 μM resazurin were added to the lysates. Resorufin fluorescence was determined as a measure of 2-DG uptake at ex/em 535/590 nm with a Victor Multilabel plate reader (Perkin Elmer). Blank values were subtracted from all readings and values were normalized to the DMSO control.

GLUT1 = target: T2, GLUT1 (Homo sapiens, UniProt P11166); assay: GLUT1 transporter activity assay (2-DG uptake) in DLD1 cells; conditions: DLD1 cell line; read-out: GLUT1 inhibitory activity (IC50)
T2 construct: host or cells: DLD-1 (DLD1) cells
T2 sequence (P11166 1-492): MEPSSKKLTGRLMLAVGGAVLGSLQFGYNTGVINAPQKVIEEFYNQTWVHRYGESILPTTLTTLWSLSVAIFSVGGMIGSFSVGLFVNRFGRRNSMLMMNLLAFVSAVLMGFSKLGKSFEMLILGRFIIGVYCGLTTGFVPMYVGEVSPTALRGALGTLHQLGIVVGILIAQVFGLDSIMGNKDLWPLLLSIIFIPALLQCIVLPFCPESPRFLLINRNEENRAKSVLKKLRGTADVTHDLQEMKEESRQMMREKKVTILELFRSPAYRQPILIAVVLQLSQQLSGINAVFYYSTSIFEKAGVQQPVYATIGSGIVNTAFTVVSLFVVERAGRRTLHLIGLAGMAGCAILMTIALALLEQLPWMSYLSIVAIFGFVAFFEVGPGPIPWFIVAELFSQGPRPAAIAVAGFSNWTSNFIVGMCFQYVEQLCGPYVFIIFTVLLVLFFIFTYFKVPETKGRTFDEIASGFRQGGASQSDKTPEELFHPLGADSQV
Text: as §1, §2, §3, §4

GLUT3 = target: T3, GLUT3 (Homo sapiens, UniProt P11169); assay: GLUT3 transporter activity assay (2-DG uptake) in DLD-1-GLUT1-/- cells; conditions: DLD-1-GLUT1-/- cell line; read-out: GLUT3 inhibitory activity (IC50)
T3 construct: host or cells: DLD-1-GLUT1(-/-) cells
T3 sequence (P11169 1-496): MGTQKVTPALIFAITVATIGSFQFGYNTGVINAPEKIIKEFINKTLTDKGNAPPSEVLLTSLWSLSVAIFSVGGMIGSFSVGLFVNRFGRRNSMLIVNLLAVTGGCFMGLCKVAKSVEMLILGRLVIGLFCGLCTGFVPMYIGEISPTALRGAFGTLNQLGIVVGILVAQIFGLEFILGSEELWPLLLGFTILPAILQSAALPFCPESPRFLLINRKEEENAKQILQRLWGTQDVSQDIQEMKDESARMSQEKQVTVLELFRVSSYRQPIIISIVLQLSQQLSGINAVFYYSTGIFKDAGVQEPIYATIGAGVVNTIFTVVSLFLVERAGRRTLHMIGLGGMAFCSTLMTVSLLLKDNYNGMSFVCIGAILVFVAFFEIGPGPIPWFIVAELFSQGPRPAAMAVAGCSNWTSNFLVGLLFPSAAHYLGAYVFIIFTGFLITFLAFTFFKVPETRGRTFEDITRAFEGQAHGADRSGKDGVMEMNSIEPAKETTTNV
Text: as §1, §2, §3, §4

GLUT2 = target: T4, GLUT2 (Homo sapiens, UniProt P11168); assay: GLUT2 transporter activity assay in CHO-hGLUT2 cells (indirect, intracellular ATP levels); conditions: CHO-hGLUT2 cell line; read-out: GLUT2 inhibitory activity (IC50)
T4 sequence (P11168 1-524): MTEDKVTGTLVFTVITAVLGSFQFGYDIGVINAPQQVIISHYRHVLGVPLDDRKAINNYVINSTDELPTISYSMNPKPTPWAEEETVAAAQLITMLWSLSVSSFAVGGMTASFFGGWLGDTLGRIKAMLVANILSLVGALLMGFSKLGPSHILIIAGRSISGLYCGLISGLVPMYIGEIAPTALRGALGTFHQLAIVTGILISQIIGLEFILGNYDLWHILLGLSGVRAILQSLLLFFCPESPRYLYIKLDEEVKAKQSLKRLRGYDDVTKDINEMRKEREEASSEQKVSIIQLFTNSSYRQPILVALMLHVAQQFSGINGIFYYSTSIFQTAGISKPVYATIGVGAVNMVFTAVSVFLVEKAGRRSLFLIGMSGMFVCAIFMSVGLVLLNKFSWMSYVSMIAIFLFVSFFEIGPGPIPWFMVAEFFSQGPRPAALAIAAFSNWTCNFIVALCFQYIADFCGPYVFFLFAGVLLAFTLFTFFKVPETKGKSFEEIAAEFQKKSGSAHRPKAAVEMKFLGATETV
Text: as §1, §2
Example 8-3: Indirect Measurement of GLUT2 (SLC2A2) Activity by Quantification of Intracellular ATP Levels
A combination of small-molecule inhibitors of mitochondrial electron transport chain and glucose catabolism synergistically suppress ATP production and impair cellular viability (Ulanovskaya et al., 2008, 2011; Liu, et al. 2001). We therefore used CHOK1 cells overexpressing SLC2A2 (CHOK1-SLC2A2) in combination with an oxidative phosphorylation inhibitor (Rotenon) to identify GLUT2 inhibitors. CHOK1-SLC2A2 cells were purchased from creative biogene (catNo: CSC-SC014484) and maintained in RPMI1640 supplemented with 10% FBS and 2 mM L-Glutamine. For the Glut2-ATP-Assay, 7,500 cells were seeded in black, clear bottom 384-well plates directly in glucose- and phenolred-free RPMI1640 medium supplemented with 1% FCS and 2 mM L-glutamine and cultured overnight to reduce intracellular ATP levels. Next day, cells were washed and incubated with […] and compounds or DMSO and 2.5 mM fructose in glucose- and phenolred-free RPMI1640 medium for 40 min. The CellTiter-Glo® Luminescence Viability Assay from Promega was used to measure ATP levels. Luminescence was measured with a Victor Multilabel plate reader (Perkin Elmer). Blank values were subtracted from all readings and values were normalized to the DMSO control.

SMILES	IC50 (HCT116 cells) [nM]	IC50 (GLUT4) [nM]	IC50 (GLUT1) [nM]	IC50 (GLUT3) [nM]	IC50 (GLUT2) [nM]
Cc1ccc(CCNC(=O)c2cccc(N3C(=O)NC4CC3(C)Oc3c(OCc5ccc(C#N)cc5)cccc34)c2)cc1 (stereo not shown) [Compound A05, 3-(10-((4-Cyanobenzyl)oxy)-2-methyl-4-oxo-5,6-dihydro-2H-2,6-methanobenzo[g][1,3,5]oxadiazocin-3(4H)-yl)-N-(4-methylphenethyl)benzamide]	≤ 5000	4000 to 10000	≤ 300	≤ 300	
Cc1ccc(CCNC(=O)c2cccc(N3C(=O)NC4CC3(C)Oc3c(OCc5ccc([N+](=O)[O-])cc5)cccc34)c2)cc1 (stereo not shown) [Compound A03, 3-(2-Methyl-10-((4-nitrobenzyl)oxy)-4-oxo-5,6-dihydro-2H-2,6-methanobenzo[g][1,3,5]oxadiazocin-3(4H)-yl)-N-(4-methylphenethyl)benzamide]	≤ 5000	4000 to 10000	300 to 1000	300 to 1000	
Cc1ccc(CCNC(=O)c2cccc(N3C(=O)NC4CC3(C)Oc3c(OCc5cccc(Cl)c5)cccc34)c2)cc1 (stereo not shown) [Compound A04, 3-(10-((3-Chlorobenzyl)oxy)-2-methyl-4-oxo-5,6-dihydro-2H-2,6-methanobenzo[g][1,3,5]oxadiazocin-3(4H)-yl)-N-(4-methylphenethyl)benzamide]	≤ 5000	> 25000	300 to 1000	300 to 1000	
Cc1ccc(CCNC(=O)c2cccc(N3C(=O)NC4CC3(C)Oc3c(OCc5c(C)noc5C)cccc34)c2)cc1 (stereo not shown) [Compound A15, 3-(10-((3,5-Dimethylisoxazol-4-yl)methoxy)-2-methyl-4-oxo-5,6-dihydro-2H-2,6-methanobenzo[g][1,3,5]oxadiazocin-3(4H)-yl)-N-(4-methylphenethyl)benzamide]		4000 to 10000	300 to 1000	300 to 1000	10000 to 25000

The remaining lines, values ahead:

IC50 (HCT116 cells) [nM]	IC50 (GLUT4) [nM]	IC50 (GLUT1) [nM]	IC50 (GLUT3) [nM]	IC50 (GLUT2) [nM]	SMILES
≤ 5000					Cc1ccc(CCNC(=O)c2cccc(N3C(=O)NC4CC3(C)Oc3c(OCc5ccc(C(C)(C)C)cc5)cccc34)c2)cc1 (stereo not shown) [Compound A06, 3-(10-((4-(tert-Butyl)benzyl)oxy)-2-methyl-4-oxo-5,6-dihydro-2H-2,6-methanobenzo[g][1,3,5]oxadiazocin-3(4H)-yl)-N-(4-methylphenethyl)benzamide]
≤ 5000	> 25000	1000 to 4000	1000 to 4000		Cc1ccc(CCNC(=O)c2cccc(N3C(=O)NC4CC3(C)Oc3c(OCc5ccccc5C)cccc34)c2)cc1 (stereo not shown) [Compound A02, 3-(2-Methyl-10-((2-methylbenzyl)oxy)-4-oxo-5,6-dihydro-2H-2,6-methanobenzo[g][1,3,5]oxadiazocin-3(4H)-yl)-N-(4-methylphenethyl)benzamide]
≤ 5000	4000 to 10000	300 to 1000	300 to 1000		Cc1ccc(CCNC(=O)c2cccc(N3C(=O)NC4CC3(C)Oc3c(OCc5ccco5)cccc34)c2)cc1 (stereo not shown) [Compound A07, 3-(10-(Furan-2-ylmethoxy)-2-methyl-4-oxo-5,6-dihydro-2H-2,6-methanobenzo[g][1,3,5]oxadiazocin-3(4H)-yl)-N-(4-methylphenethyl)benzamide]
